Source: patent US6897219B2, “Heteroaryl diazacycloalkanes, their preparation and use” (priority 1997, dated 2005)
Read-outs that look alike come from different tables or passages of the source.

Experiments:
[1] = target: nAChRs comprised of α4 and β2 subunits (Rattus norvegicus, UniProt P09483+P12390); assay: In vitro inhibition of 3H-cytisine binding
Protocol: The predominant subtype with high affinity for nicotine is comprised of α4 and β2 subunits. nAChRs of the latter type can selectively be labelled by the nicotine agonist ^3H-cytisine.
Tissue Preparation: Preparations are performed at 0-4° C. unless otherwise indicated. […] The homogenate is centrifuged at 27,000×g for 10 min. The supernatant is discarded and the pellet is resuspended in fresh buffer and centrifuged a second time. The final pellet is resuspended in fresh buffer (35 ml per g of original tissue) and used for binding assays.
Assay: Aliquots of 500 μl homogenate are added to 25 μl of test solution and 25 μl of ^3H-cytisine (1 nM, final concentration), mixed and incubated for 90 min at 2° C. Non-specific binding is determined using (−)-nicotine (100 μM, final concentration). After incubation the samples are added 5 ml of ice-cold buffer and poured directly onto Whatman GF/C glass fibre filters under suction and immediately washed with 2×5 ml ice-cold buffer. The amount of radioactivity on the filters is determined by conventional liquid scintillation counting. Specific binding is total binding minus non-specific binding.

[2] = target: T1, neuronal nicotinic receptors (α4β2 subtype high affinity site) (Rattus norvegicus, UniProt P09483+P12390); assay: In vitro inhibition of 3H-epibatidin binding
T1 construct: The forebrain (÷cerebellum) from a male Wistar rat (150-250 g) is homogenized; from tissue; host or cells: rat forebrain (without cerebellum) membrane homogenate
Protocol: The high affinity binding site for ^3H-epibatidin is most certainly binding to the α4β2 subtype of nicotinic receptors. The identity of the low affinity site is still unknown; does it represent a second nicotinic receptor or a second site in the same receptor.
Tissue preparation: Preparations are performed at 0-4° C. unless otherwise indicated. The forebrain (÷cerebellum) from a male Wistar rat (150-250 g) is homogenized for 10-20 sec in 20 ml Tris, HCl (50 mM, pH 7.4) using an Ultra-Turrax homogenizer. The tissue suspension is centrifuged at 27,000×g for 10 min. The supernatant is discarded and the pellet is washed three times by centrifugation at 27,000×g for 10 min in 20 ml fresh buffer, and the final pellet is resuspended in fresh buffer (400 ml per g of original tissue) and used for binding assays.
Assay: Aliquots of 2.0 ml homogenate are added to 0.100 ml of test solution and 0.100 ml of ^3H-epibatidin (0.3 nM, final concentration), mixed and incubated for 60 min at room temperature. Non-specific binding is determined using (−)-nicotine (30 μM, final concentration). After incubation the samples are poured directly onto Whatman GF/C glass fibre filters (presoaked in 0.1% PEI for at least 20 min) under suction and immediately washed with 2×5 ml ice-cold buffer. The amount of radioactivity on the filters is determined by conventional liquid scintillation counting. Specific binding is total binding minus non-specific binding.

[3] = target: nAChR formed by the α7 subunit isoform (Rattus norvegicus, UniProt Q05941); assay: biochemical; type: binding
[4] = relative to morphine; cited from earlier work
[5] = rat forebrain homogenate, 0.3 nM 3H-epibatidin, 60 min at room temperature, read-out: 3H-epibatidin IC50
[6] = rat cerebral cortex homogenate, 1 nM 3H-cytisine, 90 min at 2° C., read-out: 3H-cytisine IC50

nAChR formed by the α7 subunit isoform, sequence (Q05941 23-502): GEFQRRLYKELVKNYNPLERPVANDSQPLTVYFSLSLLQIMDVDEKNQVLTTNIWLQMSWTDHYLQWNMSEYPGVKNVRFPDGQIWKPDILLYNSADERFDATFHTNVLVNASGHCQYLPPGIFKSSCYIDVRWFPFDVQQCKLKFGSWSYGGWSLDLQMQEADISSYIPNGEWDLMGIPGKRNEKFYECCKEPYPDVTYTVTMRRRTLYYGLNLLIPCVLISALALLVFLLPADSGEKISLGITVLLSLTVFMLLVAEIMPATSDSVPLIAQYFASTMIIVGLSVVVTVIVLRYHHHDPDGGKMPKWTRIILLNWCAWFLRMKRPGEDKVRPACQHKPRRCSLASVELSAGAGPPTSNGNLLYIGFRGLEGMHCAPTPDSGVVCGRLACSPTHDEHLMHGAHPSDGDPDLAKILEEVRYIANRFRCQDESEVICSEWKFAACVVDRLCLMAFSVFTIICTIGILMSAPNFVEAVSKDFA
T1 sequence (P09483 31-630): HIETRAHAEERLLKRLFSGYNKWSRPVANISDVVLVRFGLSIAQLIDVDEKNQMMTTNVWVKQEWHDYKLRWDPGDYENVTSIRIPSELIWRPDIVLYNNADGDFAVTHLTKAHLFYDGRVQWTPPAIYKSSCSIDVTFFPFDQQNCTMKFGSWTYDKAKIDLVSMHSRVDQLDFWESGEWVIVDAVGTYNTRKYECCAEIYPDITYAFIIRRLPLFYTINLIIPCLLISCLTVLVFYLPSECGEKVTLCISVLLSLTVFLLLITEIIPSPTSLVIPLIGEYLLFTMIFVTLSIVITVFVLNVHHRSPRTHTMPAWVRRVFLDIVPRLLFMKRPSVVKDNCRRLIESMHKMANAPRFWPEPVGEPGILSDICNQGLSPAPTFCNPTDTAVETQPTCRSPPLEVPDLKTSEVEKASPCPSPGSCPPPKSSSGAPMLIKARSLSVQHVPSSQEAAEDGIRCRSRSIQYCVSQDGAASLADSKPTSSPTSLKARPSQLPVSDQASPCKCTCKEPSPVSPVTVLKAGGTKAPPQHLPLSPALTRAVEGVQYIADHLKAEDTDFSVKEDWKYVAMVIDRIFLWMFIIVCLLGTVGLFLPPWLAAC
T1 sequence (P12390 25-500): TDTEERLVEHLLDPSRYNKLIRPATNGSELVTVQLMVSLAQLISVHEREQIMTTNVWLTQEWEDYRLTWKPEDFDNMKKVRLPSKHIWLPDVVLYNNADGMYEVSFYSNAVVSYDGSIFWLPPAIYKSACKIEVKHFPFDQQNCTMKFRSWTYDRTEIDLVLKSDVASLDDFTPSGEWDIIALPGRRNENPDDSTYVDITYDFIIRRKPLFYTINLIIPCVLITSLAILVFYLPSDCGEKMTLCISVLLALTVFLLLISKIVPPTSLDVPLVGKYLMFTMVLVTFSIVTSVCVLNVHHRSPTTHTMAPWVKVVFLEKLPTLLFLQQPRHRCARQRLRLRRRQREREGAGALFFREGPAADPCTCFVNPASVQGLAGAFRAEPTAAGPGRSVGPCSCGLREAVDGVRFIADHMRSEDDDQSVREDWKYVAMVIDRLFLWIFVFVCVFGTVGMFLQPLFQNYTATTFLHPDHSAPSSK
nAChRs comprised of α4 and β2 subunits, sequence (P09483 31-630): as the sequence (P09483 31-630) above
nAChRs comprised of α4 and β2 subunits, sequence (P12390 25-500): as the sequence (P12390 25-500) above

| Structure (SMILES) | IC50 [1] | IC50 [2, 5] | IC50 [3] | melting point | IC50 [1, 6] | IC50 [2] | analgesic potency, times that of morphine [4] |
| --- | --- | --- | --- | --- | --- | --- | --- |
| COc1cncc(N2CCN(C)CC2)c1 [Compound 3A, 4-Methyl-1-(5-methoxy-3-pyridyl)-piperazine] | 68 nM | 380 nM | 32500 nM | 67.5 to 68 °C | – | – | – |
| COCCOc1cncc(N2CCCN(C)CC2)c1 [Compound 7E, 1-(5-Methoxyethoxy-3-pyridyl)-4-methyl-homopiperazine] | 70 nM | 550 nM | > 30000 nM | – | – | – | – |
| Clc1ccc(N2CCCCNCC2)nn1 [Compound 8B, 1-(6-Chloro-3-pyridazinyl)-1,4-diazacyclooctane] | – | – | 5500 nM | – | 550 nM | 920 nM | – |
| CC(C)COc1cncc(N2CCCN(C)CC2)c1 [Compound 8E, 4-Methyl-1-[5-(2-methyl-propyloxy)-3-pyridyl]-homopiperazine] | 70 nM | 450 nM | > 30000 nM | – | – | – | – |
| Brc1ccc(N2CCCNCC2)cn1 [Compound 8K, 1-(6-Bromo-3-pyridyl)-homopiperazine] | – | – | 620 nM | – | 1 nM | 10 nM | – |
| CCOc1cncc(N2CCN(CC)CC2)c1 [Compound 9D, 1-(5-Ethoxy-3-pyridyl)-4-ethyl-piperazine] | 70 nM | – | > 30000 nM | – | – | 210 nM | – |
| CN1CCCN(c2cncc(OCC3CC3)c2)CC1 [Compound 9E, 1-(5-Cyclopropylmethoxy-3-pyridyl)-4-methyl-homopiperazine] | 78 nM | 4800 nM | > 30000 nM | – | – | – | – |
| c1ncc(N2CCCNCC2)cc1OCC1CC1 [Compound 9H, 1-(5-Cyclopropylmethoxy-3-pyridyl)-homopiperazine] | 1 nM | – | > 30000 nM | – | – | 6 nM | – |
| CCCOc1cncc(N2CCCN(C)CC2)c1 [Compound 10E, 4-Methyl-1-(5-propyloxy-3-pyridyl)-homopiperazine] | 60 nM | 290 nM | > 30000 nM | – | – | – | – |
| CCCOc1cncc(N2CCCNCC2)c1 [Compound 10H, 1-(5-Propyloxy-3-pyridyl)-homopiperazine] | 0.9 nM | – | > 30000 nM | – | – | 5.4 nM | – |
| CCCCCCOc1cncc(N2CCCN(C)CC2)c1 [Compound 11E, 1-(5-Hexyloxy-3-pyridyl)-4-methyl-homopiperazine] | – | – | > 30000 nM | – | 800 nM | 250 nM | – |
| CC(C)CCOc1cncc(N2CCCN(C)CC2)c1 [Compound 12E, 4-Methyl-1-[5-(3-methyl-butoxy)-3-pyridyl]-homopiperazine] | 55 nM | 270 nM | > 30000 nM | – | – | – | – |
| CN1CCCN(c2cncc(OCC3CCCCC3)c2)CC1 [Compound 14E, 1-(5-Cyclohexylmethoxy-3-pyridyl)-4-methyl-homopiperazine] | – | – | > 30000 nM | – | 200 nM | 480 nM | – |
| CCCCCOc1cncc(N2CCCN(C)CC2)c1 [Compound 15E, 4-Methyl-1-(5-pentyloxy-3-pyridyl)-homopiperazine] | 30 nM | 210 nM | > 30000 nM | – | – | – | – |
| CCCCCCCOc1cncc(N2CCCN(C)CC2)c1 [Compound 16E, 1-(5-Heptyloxy-3-pyridyl)-4-methyl-homopiperazine] | – | – | > 30000 nM | – | 280 nM | 700 nM | – |
| C/C=C/Oc1cncc(N2CCCN(C)CC2)c1 [Compound 17E, trans-4-Methyl-1-(5-propyl-1-en-oxy-3-pyridyl)-homopiperazine] | 20 nM | – | > 30000 nM | – | – | 90 nM | – |
| CN1CCCN(c2cncc(SCc3ccccc3)c2)CC1 [Compound 18E, 4-Methyl-1-(5-thiobenzyl-3-pyridyl)-homopiperazine] | – | – | 15000 nM | – | 600 nM | 800 nM | – |
| CN1CCCN(c2cncc(-c3cccnc3)c2)CC1 [Compound 19E, 4-Methyl-1-[5-(3-pyridyl)-3-pyridyl]-homopiperazine] | – | – | > 30000 nM | – | 170 nM | 1800 nM | – |
| CN1CCCN(c2cncc(OC3CCCC3)c2)CC1 [Compound 25E, 1-(5-Cyclopentyloxy-3-pyridyl)-4-methyl-homopiperazine] | 80 nM | 610 nM | > 30000 nM | – | – | – | – |
| Clc1ccc(C2CC3CCC2N3)cn1 (centres unmarked) [Epibatidine] | – | – | – | – | – | – | ~500 times |
